Data set [1] is described as follows: Safety assay: cytotoxicity against Vero non-cancer cell line. It counts as cell-based. The conditions noted are these: African green monkey, Vero cells (non-cancer cell line); Vero normal cell line. As for the experimental part:
In this work, the safety pattern of the synthesized derivatives 10a, b and 14a-c was also evaluated by testing their in vitro cytotoxicity against Vero non-cancer cell line using the MTT assay protocol.
Section in S1 File.
Mammalian cell lines culture […]
The cultured media were supplemented with 200 mM L-glutamine, 10.0% fetal bovine serum (Lonza), and 1.0% penicillin/streptomycin. Cells were seeded into 25.0 cm tissue culture flasks and incubated at 37 ◦C in a 5.0% CO 2 incubator for 24 h or till confluency.
(§1) The safety profiles of the tested compounds were checked on one non-cancerous cell line (Vero) to […]
of 100.0 µl of 6×10^4 cell/ml cells was seeded in to each well of a 96-well plate and then the plates were incubated at 37 °C in a humidified 5.0% CO2 incubator for 24 h. At the end of incubation period, the exhausted medium was replaced with 100.0 µl of different concentrations of the designated treatment (prepared in RPMI medium starting from 1.0 mM). The inoculated plates were incubated at the same growth conditions for another 24 h. At the end of incubation, cellular viability was assessed using MTS assay kit (Promega) according to the manual instruction. […]

Another data set has as its target T1, VEGFR-2 (Homo sapiens, UniProt P35968).
T1 construct: purchased
Kind of data set: In vitro VEGFR-2 inhibition (VEGFR-2 ELISA kit). It counts as biochemical. To be noted: for IC50: ELISA kit; for HillSlope (best-fit value) / LogIC50 (best-fit value): dose-response curve fit, raw data S.5. As for the experimental part: Compounds 10a, b and 14a-c were evaluated for their VEGFR-2inhibitory activity.
VEGFR-2 ELISA kit was used in this test as described in S.1.3. Section in S1 File. […]
S.1.3. In vitro VEGFR-2 kinase assay
All the synthesized compounds were tested for its inhibitory activity against VEGFR-2. Human VEGFR-2 ELISA kit (Enzyme-Linked Immunosorbent Assay) was utilized in this test. At first, specific antibody for VEGFR-2 was seeded on a 96-well plate and 100 μL of the standard solution or the tested compound was added, all were incubated at room temperature for 2.5 h. Then washed, 100 μL of the prepared biotin antibody was added, then incubated at room temperature for additional 1 h. and washed. Then, 100 μL of streptavidin solution was added and incubated for 45 min. at room temperature. Washed again, 100 μL of TMB Substrate reagent was added and incubated for 30 min. at room temperature. 50 μL of the stop solution was added, then read at 450 nm immediately. The standard curve was drawn, concentrations on the X-axis and the absorbance

The subject of another data set is HepG2. Kind of data set: MTT anti-proliferative assay, HepG2. It counts as cell-based. To be noted: for IC50: Homo sapiens, HepG2 cell line, MTT; for Selectivity index (HepG2): SI = Cytotoxicity against Vero cells / Cytotoxicity against HepG2 cell line. On the procedure: (§2) The cytotoxicity effects of the synthesized candidates were evaluated against A549, Caco-2, HepG2, and MDA-mb-231 cell lines. MTT assay method was applied using the sub-IC50 concentrations of each compound as the treatment dose. Doxorubicin was used as a reference molecule. […] Also, it was noticed that Caco-2 was the most sensitive cell line.
(§3) The synthesized compounds were evaluated for their anti-proliferative activities against A549, Caco-2, HepG2, and MDA-mb-231 cell lines using the MTT assay protocol as described in S.1.2. Section in S1 File.
(§4) Mammalian cell lines culture
(§5) CaCo-2, and A549 cell lines were cultured on DMEM media, meanwhile MDA-MB-231 and hepG-2 cell line were cultured on RBMI media. The cultured media were supplemented with 200 mM L-glutamine, 10.0% fetal bovine serum (Lonza), and 1.0% penicillin/streptomycin. Cells were seeded into 25.0 cm tissue culture flasks and incubated at 37 ◦C in a 5.0% CO 2 incubator for 24 h or till confluency.
as §1
(§6) of 100.0 µl of 6×10^4 cell/ml cells was seeded in to each well of a 96-well plate and then the plates were incubated at 37 °C in a humidified 5.0% CO2 incubator for 24 h. At the end of incubation period, the exhausted medium was replaced with 100.0 µl of different concentrations of the designated treatment (prepared in RPMI medium starting from 1.0 mM). The inoculated plates were incubated at the same growth conditions for another 24 h. At the end of incubation, cellular viability was assessed using MTS assay kit (Promega) according to the manual instruction.
(§7) S.1.2. In-vitro anticancer activity
(§8) Anticancer activities of the tested compounds against CaCo-2, MDA-MB-231, and hepG-2 cell lines were quantified using MTS assay kit (Promega) as described by the Manufacturer. […]
(Tetrazolium assays rely on reduction of a dye to a coloured formazan, in cell work by metabolically active cells.)

For another data set, the system named is A549. The data set can be described thus: MTT anti-proliferative assay, A549. The conditions noted are these: for IC50: Homo sapiens, A549 cell line, MTT; for Selectivity index (A549): SI = Cytotoxicity against Vero cells / Cytotoxicity against A549 cell line. It counts as cell-based. As for the experimental part:
as §2, §3, §4, §5, §1, §6, §7, §8

For a further data set, the system named is Caco-2. The data set can be described thus: MTT anti-proliferative assay, Caco-2. It counts as cell-based. To be noted: Homo sapiens; Caco-2 cell line, MTT; read-out: Anti-proliferative activity (IC50 μM) Caco2. On the procedure:
as §2, §3, §4, §5, §1, §6, §7, §8

Data set [2] is described as follows: MTT anti-proliferative assay, Caco-2. It counts as cell-based. The conditions noted are these: African green monkey (Vero); human (Caco-2); SI = Cytotoxicity against Vero cells / Cytotoxicity against Caco-2 cell line; read-out: Selectivity index (Caco-2). On the procedure: as §2, §3, §4, §5, §1, §6, §7, §8
Another data set concerns MDA-mb-231. Kind of data set: MTT anti-proliferative assay, MDA-mb-231. It counts as cell-based. To be noted: for IC50: Homo sapiens, MDA-mb-231 cell line, MTT; for Selectivity index (MDA-MB-231): SI = Cytotoxicity against Vero cells / Cytotoxicity against MDA-MB-231 cell line. On the procedure: as §2, §3, §4, §5, §1, §6, §7, §8

One may read the IC50 as the concentration that gives 50% inhibition.

T1 sequence (P35968 20-1356): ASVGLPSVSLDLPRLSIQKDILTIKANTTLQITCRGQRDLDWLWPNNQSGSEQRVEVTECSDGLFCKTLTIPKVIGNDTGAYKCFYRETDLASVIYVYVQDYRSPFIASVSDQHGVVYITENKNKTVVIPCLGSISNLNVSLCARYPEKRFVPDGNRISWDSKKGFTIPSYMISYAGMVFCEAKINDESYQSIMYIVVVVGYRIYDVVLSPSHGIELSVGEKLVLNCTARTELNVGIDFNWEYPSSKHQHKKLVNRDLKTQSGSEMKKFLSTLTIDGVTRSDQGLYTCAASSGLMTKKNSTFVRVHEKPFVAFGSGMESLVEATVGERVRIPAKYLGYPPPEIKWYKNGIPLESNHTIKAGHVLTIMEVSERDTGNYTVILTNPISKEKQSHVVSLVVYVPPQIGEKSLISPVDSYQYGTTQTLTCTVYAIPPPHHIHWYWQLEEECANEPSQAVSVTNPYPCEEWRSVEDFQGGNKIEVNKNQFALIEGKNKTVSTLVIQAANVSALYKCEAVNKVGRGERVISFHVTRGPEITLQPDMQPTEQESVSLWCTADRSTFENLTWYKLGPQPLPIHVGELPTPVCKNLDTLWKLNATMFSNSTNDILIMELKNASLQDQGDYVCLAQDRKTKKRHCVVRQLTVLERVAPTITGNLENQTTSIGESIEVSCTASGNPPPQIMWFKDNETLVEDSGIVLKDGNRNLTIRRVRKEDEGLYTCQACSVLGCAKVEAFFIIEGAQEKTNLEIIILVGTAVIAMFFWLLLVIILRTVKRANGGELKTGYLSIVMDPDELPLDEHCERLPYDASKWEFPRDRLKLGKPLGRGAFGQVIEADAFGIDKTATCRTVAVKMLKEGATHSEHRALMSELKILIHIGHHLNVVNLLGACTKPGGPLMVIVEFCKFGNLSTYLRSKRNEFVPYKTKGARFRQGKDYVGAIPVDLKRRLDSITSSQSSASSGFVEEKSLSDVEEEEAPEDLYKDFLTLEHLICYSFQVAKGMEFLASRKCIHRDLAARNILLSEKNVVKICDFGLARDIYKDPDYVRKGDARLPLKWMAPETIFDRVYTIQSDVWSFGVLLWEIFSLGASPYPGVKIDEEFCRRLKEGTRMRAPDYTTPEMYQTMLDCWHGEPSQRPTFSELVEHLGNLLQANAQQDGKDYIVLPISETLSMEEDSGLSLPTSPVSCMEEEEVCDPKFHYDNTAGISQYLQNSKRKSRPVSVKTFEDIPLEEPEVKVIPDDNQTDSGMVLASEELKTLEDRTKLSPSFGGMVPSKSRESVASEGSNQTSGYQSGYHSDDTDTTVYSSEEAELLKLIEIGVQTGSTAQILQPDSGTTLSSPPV

In data set [1], `O=C(CN1C(=O)SC(=C2C(=O)Nc3ccccc32)C1=O)Nc1cc(Cl)ccc1Cl` [Compound 14b, N-(2,5-Dichlorophenyl)-2-(2,4-dioxo-5-(2-oxoindolin-3-ylidene)thiazolidin-3-yl)acetamide] registered an IC50 at 24 h of 1270 ± 126 µM. At VEGFR-2, the half-maximal inhibitory concentration (IC50) was determined as 0.0858 ± 0.0076 µM, the “HillSlope (best-fit value)” value is -0.5620 and the “LogIC50 (best-fit value)” value was 1.934 Log (nM). Besides, in the data set with HepG2, the midpoint of inhibition, the IC50, lay at 42.5 ± 3.2 µM and the “Selectivity index (HepG2)” value worked out at 29.917. Moreover, in the data set on A549, half-maximal inhibition (IC50) required 292 ± 25.1 µM and the “Selectivity index (A549)” value was found to be 4.340. For the same compound, the concentration for half-maximal inhibition (IC50) in the data set with Caco-2 came out at 74 ± 6.5 µM. In data set [2], the selectivity ratio was determined as 17.1. For the same compound, in the data set with MDA-mb-231, the half-maximal inhibitory concentration (IC50) worked out at 94.5 ± 8.4 µM and the “Selectivity index (MDA-MB-231)” value stood at 13.555.

Compound `COc1ccc2[nH]c(=O)c(/C=C3\SC(=O)N(CC(=O)Nc4cc(Cl)ccc4Cl)C3=O)cc2c1` [Compound 10b, (Z)-N-(2,5-Dichlorophenyl)-2-(5-((6-methoxy-2-oxo-1,2-dihydroquinolin-3-yl)methylene)-2,4-dioxothiazolidin-3-yl)acetamide] gave a half-inhibitory concentration (IC50) at 24 h in data set [1] of 1580 ± 155 µM. On VEGFR-2, the IC50 worked out at 0.165 ± 0.0153 µM, the “HillSlope (best-fit value)” value is recorded as -0.3514 and the “LogIC50 (best-fit value)” value is given as 2.216 Log (nM). In addition, in the data set with HepG2, half-maximal inhibition (IC50) was put at 71 ± 6.4 µM and the “Selectivity index (HepG2)” value stood at 22.250. Also, in the data set with A549, the half-inhibitory concentration (IC50) is 92.5 ± 8.6 µM and the “Selectivity index (A549)” value was found to be 17.080. In addition, the 50% inhibitory concentration (IC50) with Caco-2 worked out at 62.5 ± 5.4 µM. Moreover, the selectivity ratio in data set [2] is 25.3. Further, in the data set with MDA-mb-231, the half-maximal inhibitory concentration (IC50) was 31.5 ± 2.5 µM and the “Selectivity index (MDA-MB-231)” value came out at 51.333.

With `O=C(CN1C(=O)SC(=C2C(=O)Nc3ccccc32)C1=O)NCCc1ccccc1` [Compound 14c, 2-(2,4-Dioxo-5-(2-oxoindolin-3-ylidene)thiazolidin-3-yl)-N-phenethylacetamide], at VEGFR-2, the IC50 was determined as 0.0815 ± 0.0073 µM, the “HillSlope (best-fit value)” value is listed as -0.4220 and the “LogIC50 (best-fit value)” value is listed as 1.911 Log (nM). Besides, in the data set with HepG2, half-maximal inhibition (IC50) was put at 92 ± 8.1 µM and the “Selectivity index (HepG2)” value came to 10.601. In addition, in the data set on A549, the IC50 was determined as 282 ± 27.3 µM and the “Selectivity index (A549)” value turned out to be 3.463. For the same compound, the IC50 in the data set on Caco-2 was 192 ± 18.1 µM. In addition, the selectivity ratio in data set [2] was found to be 5.07. Further, in the data set with MDA-mb-231, inhibition was half-maximal at 484 ± 47.2 µM (IC50) and the “Selectivity index (MDA-MB-231)” value came out at 2.020.

`COc1ccc2[nH]c(=O)c(/C=C3\SC(=O)N(CC(=O)Nc4ccc(Cl)cc4)C3=O)cc2c1` [Compound 10a, (Z)-N-(4-Chlorophenyl) -2-(5-((6-methoxy-2-oxo-1,2-dihydroquinolin-3-yl)methylene) -2,4-dioxothiazolidin-3-yl)acetamide]: the 50% inhibitory concentration (IC50) at 24 h in data set [1] turned out to be 194 ± 18.2 µM. For the same compound, at VEGFR-2, the midpoint of inhibition, the IC50, lay at 0.0652 ± 0.0055 µM; the “HillSlope (best-fit value)” value is recorded as -0.4587; the “LogIC50 (best-fit value)” value was 1.814 Log (nM). In addition, in the data set on HepG2, the concentration for half-maximal inhibition (IC50) turned out to be 174 ± 16.3 µM and the “Selectivity index (HepG2)” value stood at 1.118. Also, in the data set with A549, the IC50 came out at 85 ± 7.5 µM and the “Selectivity index (A549)” value came out at 2.280. Besides, the IC50 in the data set with Caco-2 was determined as 82.5 ± 7.2 µM. Moreover, the selectivity ratio in data set [2] was 2.35. Besides, in the data set on MDA-mb-231, the IC50 is 132 ± 5.2 µM and the “Selectivity index (MDA-MB-231)” value turned out to be 1.460.

On to `COc1cccc2c1C(=O)c1c(O)c3c(c(O)c1C2=O)C[C@@](O)(C(=O)CO)C[C@@H]3O[C@H]1C[C@H](N)[C@H](O)[C@H](C)O1` [Doxorubicin, reference compound], for which the IC50 with HepG2 is 1.2 ± 0.07 µM; with A549, 86.4 ± 7.1 µM; with Caco-2 it was 3.5 ± 0.22 µM; in the data set on MDA-mb-231 it was 0.98 ± 0.001 µM.
